# In patent publication US12344878B2, “Artificial organelles for enzymatic cofactor reduction” (priority 2020, dated 2025):
# Like-named read-outs stand apart in the source and are kept apart here.
# How the values were obtained:
# [1] = target: T1, Respiratory Complex I (CMI, NADH:ubiquinone oxidoreductase) (Escherichia coli, UniProt P0AFC7+P0AFD4+P31979+P33599); assay: Complex I proton pumping (ACMA quenching) in CMI proteoliposomes; format: biochemical, E. coli
# T1 construct: made in house; host or cells: E. coli overexpression strain ANN0221
# Procedure: (§1) Complex I NADH:DQ oxidoreductase and proton pumping activity were measured simultaneously using a Flexstation 3 (Molecular Devices, Inc.). NADH:DQ oxidoreductase activity was monitored through NADH oxidation by fluorescence spectroscopy (λexictation=340 nm, λemission=455 nm), while proton gradient generation was determined by quenching of ACMA (λexictation=410 nm, λemission=480 nm). The assay was conducted at 28° C. in the corresponding buffer, 25 μL of proteoliposomes were added to 175 μL assay mixture containing 100 μM DQ, 200 μM NADH, 0.2 μM valinomycin, 2.5 μM ACMA and for decoupling and inhibition assays 5 μM CCCP (carbonyl cyanide 3-chlorophenylhydrazone) and 50 μM Piericidin A, respectively. The sample was incubated for 5 min prior to reaction initiation by addition of NADH. When conducting inhibition assays proteoliposomes were incubated for 5 min with Piericidin A before the addition of DQ.
# [2] = target: (+)CMI-(+)bR proteoliposomes (Escherichia coli, UniProt P0AFC7+P0AFD4+P31979+P33599); format: biochemical, E. coli (CMI), H. salinarum (bR)
# Procedure: (§2) Photoreduction by CMI:PSII proteoliposomes were routinely performed at 28° C. in 5 mM MES, pH 6.5, 50 mM KCl, 5 mM MgCl2 2 mM CaCl2, 25 µL of proteoliposomes were added to 175 μL assay mixture containing 50 μM DQ, 0.2 μM valinomycin, 2.5 μM ACMA; and for decoupling and inhibition assays: 5 μM CCCP and 100 μM DCMU, respectively. The potassium ionophore, valinomycin, was added to collapse the electrical component of the PMF and generate a higher ΔpH. Without being bound by any theory, the reverse electron transfer activity of CMI is believed to be more dependent on the proton component of the […] than the electrical component of the […]. Saturating white light >2200 μmol photons m^−2 s^−1 was provided by a 100 W Mercury lamp. The light was passed through a 2 L water bath. The reaction was monitored using Flexstation 3 (Molecular Devices, Inc.), NADH concentration was monitored by fluorescence spectroscopy (λexictation=340 nm, λemission=455 nm), while the proton gradient generation was determined by the change in ACMA signal (λexictation=410 nm, λemission=480 nm).
# (§3) Liposome preparation, enzyme reconstitution, NAD^+ photoreduction, and proton pumping assays were performed as described above.
# In this study, an engineered artificial organelle capable of photoreduction of NAD^+ was created by vectorially integrating bR from H. salinarum and CMI from E. coli into proteoliposomes. The power source for this system is light which activates the proton translocation by bR. As a result, accumulation of H^+ within the lumen creates a proton motive force (PMF). The PMF is requisite to diminish the thermodynamic gap of the standard redox potentials between NADH/NAD^+ and QH2/Q. Reducing the thermodynamic barrier enables CMI to perform reverse electron transfer (RET) from QH2 to NAD^+ [10, 46].
# The experiments were initially conducted to determine whether the (+)CMI-(+)bR proteoliposomes could reduce NAD^+ and find suitable assay conditions.
# [3] = target: T2, Photosystem II (PSII) (Synechocystis sp., UniProt P09192+P16033); assay: Oxygen evolution assay (Clarke-type electrode); format: biochemical, Synechocystis sp. PCC6803
# T2 construct: made in house; host or cells: Synechocystis sp; PCC6803 strain with His-tagged CP47; thylakoid membranes
# Procedure: Oxygen evolution assays were performed using 50 mM MES, pH 6.5, 10 mM NaCl, 5 mM MgCl2, 20 mM CaCl2 using a Clarke-type electrode (Hansatech Instruments, Ltd.). 2 mM ferricyanide and either 300 μM 2,5-dicholor-1,4-benzoquinone (DCBQ) or 50 μM DQ was added as electron acceptor with […] of ChlA of the sample to a final volume of 1.5 mL. The reaction took place at 28° C. and was initiated by red light at 2800 μmol s^−1 m^−2.
# [4] = system: T3, CMI:PSII proteoliposomes; assay: NAD+ photoreduction assay of CMI:PSII proteoliposomes (NADH fluorescence); format: biochemical, E. coli (CMI), Synechocystis sp. PCC6803 (PSII); conditions: for Max Rate NAD^+ Photoreduction: 4PSII:1CMI proteoliposomes; for Sum NADH: production plus remaining
# T3 construct: made in house; host or cells: CMI from E. coli strain ANN0221; PSII from Synechocystis sp; PCC6803 (His-tagged CP47); co-reconstituted in E. coli lipid liposomes
# Procedure: as §2
# [5] = system: T3, CMI:PSII proteoliposomes; assay: Proton gradient (ACMA signal) of CMI:PSII proteoliposomes; format: biochemical, E. coli (CMI), Synechocystis sp. PCC6803 (PSII); conditions: 100 μM DCMU
# Procedure: as §2
# [6] = target: T1, Respiratory Complex I (CMI, NADH:ubiquinone oxidoreductase); format: biochemical, E. coli
# Procedure: as §1
# [7] = target: T4, bacteriorhodopsin (bR) and CMI proteoliposomes (Escherichia coli, UniProt P0AFC7+P0AFD4+P31979+P33599); format: biochemical, H. salinarum (bR), E. coli (CMI); conditions: 50 μM Piericidin A
# T4 construct: Bacteriorhodopsin from H. salinarum was purified using tangential flow filtration; made in house; host or cells: bR purified from H. salinarum; CMI from E. coli strain ANN0221; co-reconstituted in liposomes
# Procedure: as §3
# (§4) The pH-sensitive fluorophore 9-amino-6-chloro-2-methoxyacridine (ACMA) was used to conduct proton pumping assays. The rates of ACMA quenching were measured for CMI bR independently. Because of the non-linear relationship between ACMA quenching and ΔpH [54-55], the rate of ACMA quenching and de-quenching were calculated using the linear region of the ACMA signal, between 40-70% of the baseline.
# [8] = system: bacteriorhodopsin (bR) and CMI proteoliposomes; format: biochemical, H. salinarum (bR), E. coli (CMI); conditions: 0.2 μM valinomycin compared with 0.1 μM
# Procedure: as §3, §4
# [9] = CMI reconstituted with detergent at 7 mM
# [10] = PSII reconstituted with detergent at 7 mM
# [11] = CMI reconstituted with detergent at 3.8 mM
# [12] = CMI reconstituted with detergent at 18 mM
# [13] = CMI reconstituted with detergent at 26 mM
# [14] = CMI reconstituted with detergent at 1.8 mM
compound,measurement,setting,value
"N#CC(C#N)=NNc1cccc(Cl)c1 [CCCP, carbonyl cyanide 3-chlorophenylhydrazone]",change in ACMA fluorescence of CMI proteoliposomes,[1]; incubation with 5 μM CCCP,minimal change in ACMA fluorescence
same,response of NADH production,[2],negative and significant response
"C[C@H](CCC(=O)NCCC[N+](C)(C)CCCS(=O)(=O)[O-])[C@H]1CC[C@H]2[C@@H]3[C@H](O)C[C@@H]4C[C@H](O)CC[C@]4(C)[C@H]3C[C@H](O)[C@]12C [CHAPS, 3-[(3-cholamidopropyl)dimethylammonio]-1-propanesulfonate]",ACMA Fluorescence decrease,[1]; CMI reconstituted with detergent at 3.0 mM,0.58%
same,ACMA Fluorescence decrease,[1]; [9],74.54%
same,O2 Evolution (mean ± S.D.),[3]; PSII reconstituted with detergent at 3.0 mM,178.08 ± 9.91 umol O2 hr^−1 ug ChIA
same,O2 Evolution (mean ± S.D.),[3]; [10],509.24 ± 256.84 umol O2 hr^−1 ug ChIA
"CN(C)C(=O)Nc1ccc(Cl)c(Cl)c1 [DCMU, 3-(3,4-dicholorophenyl)-1,1-dimethylurea]",inhibition of isolated PSII,[3]; 100 μM DCMU (FIG. 10),70%
same,average rate of NADH production after removal of light,[4]; 100 μM DCMU inhibited sample,−170.65±2.26 nmol min^−1 mg CMI^−1
same,rate of NADH production of inhibited sample relative to non-inhibited sample,"[4]; 100 μM DCMU, illumination minus post illumination rates",39.05%±7.64
same,maximum rate of NADH production under illumination,[4]; proteoliposomes incubated 5 minutes with 100 μM DCMU,6.44±24.97 nmol min^−1 mg CMI^−1
same,ACMA signal increase relative to non-inhibited sample,[5],approximately 60%
"CCCCCCCCCCCCO[C@@H]1O[C@H](CO)[C@@H](O[C@H]2O[C@H](CO)[C@@H](O)[C@H](O)[C@H]2O)[C@H](O)[C@H]1O [DDM, n-dodecyl-β-D-maltopyranoside]",NADH:DQ oxidoreductase activity,[6]; [11],13.43 umol min^−1 mg CMI^−1
same,NADH:DQ oxidoreductase activity,[6]; [9],0.76 umol min^−1 mg CMI^−1
same,ACMA Fluorescence decrease,[1]; [11],1.46%
same,ACMA Fluorescence decrease,[1]; [9],0.32%
same,O2 Evolution (mean ± S.D.),[3]; PSII reconstituted with detergent at 3.8 mM,565.87 ± 25.19 umol O2 hr^−1 ug ChIA
same,O2 Evolution (mean ± S.D.),[3]; PSII reconstituted with detergent at 6.8 mM,396.55 ± 69.76 umol O2 hr^−1 ug ChIA
NC(=O)C1=CN([C@@H]2O[C@H](COP(=O)(O)OP(=O)(O)OC[C@H]3O[C@@H](n4cnc5c(N)ncnc54)[C@H](O)[C@@H]3O)[C@@H](O)[C@H]2O)C=CC1 [NADH],Max Production of NADH,[4]; 100 μM NADH injected,8.04 µM
same,NADH remaining prior to photoreduction,[4]; 100 μM NADH injected,2.05 µM
same,Max Rate NAD^+ Photoreduction,[4]; 100 μM NADH injected,132.30 nmol min^−1 mg CMI^−1
same,Sum NADH,[4]; 100 μM NADH injected,10.08 µM
same,Max Production of NADH,[4]; 200 μM NADH injected,9.10 µM
same,NADH remaining prior to photoreduction,[4]; 200 μM NADH injected,4.10 µM
same,Max Rate NAD^+ Photoreduction,[4]; 200 μM NADH injected,213.32 nmol min^−1 mg CMI^−1
same,Sum NADH,[4]; 200 μM NADH injected,13.20 µM
same,Max Production of NADH,[4]; 300 μM NADH injected,6.48 µM
same,NADH remaining prior to photoreduction,[4]; 300 μM NADH injected,8.19 µM
same,Max Rate NAD^+ Photoreduction,[4]; 300 μM NADH injected,178.71 nmol min^−1 mg CMI^−1
same,Sum NADH,[4]; 300 μM NADH injected,14.67 µM
same,Max Production of NADH,[4]; 400 μM NADH injected,1.53 µM
same,NADH remaining prior to photoreduction,[4]; 400 μM NADH injected,13.41 µM
same,Max Rate NAD^+ Photoreduction,[4]; 400 μM NADH injected,57.45 nmol min^−1 mg CMI^−1
same,Sum NADH,[4]; 400 μM NADH injected,14.94 µM
"CCCCCCCCO[C@@H]1O[C@H](CO)[C@@H](O)[C@H](O)[C@H]1O [OG, n-octyl-β-D-glucoside]",NADH:DQ oxidoreductase activity,[6]; [12],5.24 umol min^−1 mg CMI^−1
same,NADH:DQ oxidoreductase activity,[6]; [13],8.95 umol min^−1 mg CMI^−1
same,ACMA Fluorescence decrease,[1]; [12],0.71%
same,ACMA Fluorescence decrease,[1]; [13],−0.16%
same,O2 Evolution (mean ± S.D.),[3]; PSII reconstituted with detergent at 18 mM,306.95 ± 44.24 umol O2 hr^−1 ug ChIA
same,O2 Evolution (mean ± S.D.),[3]; PSII reconstituted with detergent at 26 mM,481.01 ± 192.16 umol O2 hr^−1 ug ChIA
C/C=C(\C)[C@H](O)[C@H](C)/C=C(C)/C=C/C/C(C)=C/Cc1nc(OC)c(OC)c(O)c1C [Piericidin A],inhibition of NADH:DQ oxidoreductase specific activity of CMI proteoliposomes,[6]; 50 μM Piericidin A,> 95%
same,inhibition of NADH oxidation by CMI,"[6]; 50 μM Piericidin A, (+)CMI-(−)bR proteoliposomes (FIG. 13)",> 95%
same,effect on NAD^+ reductase rates,[2]; 50 μM Piericidin A,significantly increased
same,NAD^+ reductase rate relative to samples with no Piericidin A,"[2]; 50 μM Piericidin A, 0.0 mM DTT",~3 times
same,NAD^+ reductase rate relative to samples with no Piericidin A,"[2]; 50 μM Piericidin A, 1.0 mM DTT",~4 times
same,reduction of the rate of NADH produced,"[2]; after 35 minutes, Piericidin A present",95%
same,rate of ACMA signal increase during photoreduction,[7]; 0.0 mM DTT,3.96±0.64 ACMA % min^−1
same,rate of ACMA signal increase during photoreduction,[7]; 1.0 mM DTT,3.15±0.94 ACMA % min^−1
CC(C)[C@@H]1NC(=O)[C@H](C)OC(=O)[C@@H](C(C)C)NC(=O)[C@@H](C(C)C)OC(=O)[C@H](C(C)C)NC(=O)[C@H](C)OC(=O)[C@@H](C(C)C)NC(=O)[C@@H](C(C)C)OC(=O)[C@H](C(C)C)NC(=O)[C@H](C)OC(=O)[C@@H](C(C)C)NC(=O)[C@@H](C(C)C)OC1=O [valinomycin],ACMA quenching,[8],quenched the ACMA more than 0.1 μM
"polyethylene glycol p-(1,1,3,3-tetramethylbutyl)-phenyl ether [Triton X-100 ™]",NADH:DQ oxidoreductase activity,[6]; [14],−0.00 umol min^−1 mg CMI^−1
same,NADH:DQ oxidoreductase activity,[6]; [9],9.05 umol min^−1 mg CMI^−1
same,ACMA Fluorescence decrease,[1]; [14],−2.75%
same,ACMA Fluorescence decrease,[1]; [9],−4.90%
same,O2 Evolution (mean ± S.D.),[3]; PSII reconstituted with detergent at 1.8 mM,530.72 ± 2.53 umol O2 hr^−1 ug ChIA
same,O2 Evolution (mean ± S.D.),[3]; [10],218.69 ± 67.01 umol O2 hr^−1 ug ChIA
